The values that follow come from patent US20250066343A1, “NOVEL CANNAB[…] DERIVATIVE, PREPARATION METHOD THEREFOR, AND COMPOSITION COMPRISING SAME FOR IMPROVING COGNITIVE FUNCTION” (priority 2021, published 2025).

The target of assay [1] is Acetylcholinesterase (AChE) (Homo sapiens, UniProt P22303). The assay is described as follows: Acetylcholinesterase inhibitory efficacy (acetylthiocholine/DTNB absorbance assay). Type of assay: biochemical. Here is the method:
Acetylcholinesterase or butyrylcholinesterase was prepared at 50 mU/ml, 50 μl was added to a 96-well plate, mixed with the aliquoted compound, and left for 10 minutes. The substrate, acetylthiocoline 0.05 mg/mL or butyrylthiocoline 0.1 mg/ml, was prepared and 50 μl was added to a 96-well plate and left for 10 minutes. Dithionitrobenzoic acid (DTNB) was prepared at 0.3 mg/ml, then 50 μl was added to a 96-well plate and left for 10 minutes.

Assay [2] addresses T1, Monoamine oxidase B (MAO-B) (Homo sapiens, UniProt P27338).
T1 sequence (P27338 1-520): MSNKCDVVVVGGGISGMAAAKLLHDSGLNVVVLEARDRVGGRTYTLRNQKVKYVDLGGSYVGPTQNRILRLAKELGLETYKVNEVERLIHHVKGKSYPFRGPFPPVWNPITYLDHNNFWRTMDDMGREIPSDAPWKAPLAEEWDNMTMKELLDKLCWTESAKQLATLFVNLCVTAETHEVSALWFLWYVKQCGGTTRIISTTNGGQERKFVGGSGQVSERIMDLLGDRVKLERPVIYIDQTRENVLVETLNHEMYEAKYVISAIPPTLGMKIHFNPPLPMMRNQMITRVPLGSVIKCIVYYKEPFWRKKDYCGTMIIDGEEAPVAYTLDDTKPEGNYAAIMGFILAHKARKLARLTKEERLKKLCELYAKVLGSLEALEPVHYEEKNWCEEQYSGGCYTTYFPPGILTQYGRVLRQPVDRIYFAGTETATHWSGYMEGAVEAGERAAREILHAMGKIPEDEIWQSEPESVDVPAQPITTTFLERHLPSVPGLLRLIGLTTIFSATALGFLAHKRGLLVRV
The assay is described as follows: Monoamine oxidase B inhibitory efficacy (kynuramine fluorescence assay). The assay is classed as biochemical. Particulars: compound 0-200 μM; enzyme 2 mU/mL; kynuramine substrate; N.D. = Not Detected. Here is the method:
Samples were prepared by dilution with DMSO to give concentrations of 0, 2, 5, 10, 20, 50, 100, and 200 μM of the compound, and 5 μl was dispensed into a 96-well plate. 135 μl of potassium phosphate buffer (0.1 M, 7.4 pH) was dispensed into a 96-well plate. Monoamine oxidase B was prepared at 2 mU/mL, and 50 μl was added to the 96-well plate, mixed with the dispensed compound, and left for 20 minutes. The substrate, kynuramine solution, was prepared at 100 μM, then 10 μl was added to a 96-well plate and left for 10 min. The reaction was stopped by adding 75 μl of NaOH (2N). The enzyme activity was calculated by measuring the concentration of kynuramine degraded by the enzyme using a fluorometer under 310 nm (excitation)/380 nm (emission) conditions. For the fluorescence blank experiment, potassium phosphate buffer was added instead of monoamine oxidase B to correct the compound-induced fluorescence intensity values.

The IC50 is the concentration at which inhibition is half-maximal. Low values mean greater potency, high ones weaker potency.

Molecules are shown by their SMILES.

Chain of Acetylcholinesterase (AChE) (P22303 32-614, species assumed): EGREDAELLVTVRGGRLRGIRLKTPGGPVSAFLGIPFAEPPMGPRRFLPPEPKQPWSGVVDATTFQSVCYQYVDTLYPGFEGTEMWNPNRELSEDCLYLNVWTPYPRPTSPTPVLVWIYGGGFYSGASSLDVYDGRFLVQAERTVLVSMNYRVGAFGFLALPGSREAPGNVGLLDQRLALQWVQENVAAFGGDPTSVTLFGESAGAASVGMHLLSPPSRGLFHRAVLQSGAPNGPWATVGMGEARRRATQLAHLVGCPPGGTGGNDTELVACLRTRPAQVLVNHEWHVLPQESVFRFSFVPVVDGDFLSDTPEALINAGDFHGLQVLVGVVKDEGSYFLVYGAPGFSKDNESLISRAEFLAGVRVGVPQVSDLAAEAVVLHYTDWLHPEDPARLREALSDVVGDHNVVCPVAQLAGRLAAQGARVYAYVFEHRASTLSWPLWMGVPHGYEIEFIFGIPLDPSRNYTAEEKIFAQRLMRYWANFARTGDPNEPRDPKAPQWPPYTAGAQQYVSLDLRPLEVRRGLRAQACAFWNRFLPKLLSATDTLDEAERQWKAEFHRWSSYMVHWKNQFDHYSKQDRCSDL

With `CCCCCc1cc2c(c(O)c1C(=O)NC(C)C)C=CC(C)(CCC=C(C)C)O2` (centres unmarked) [Compound 4a, 5-hydroxy-N-isopropyl-2-methyl-2-(4-methylpent-3-en-1-yl)-7-pentyl-2H-chromene-6-carboxamide], the IC50 in assay [1] worked out at 1.3 µM.
Still for that read-out and setting: then `CCCCCc1cc2c(c(O)c1C(=O)NC1CCCCCC1)C=CC(C)(CCC=C(C)C)O2` (centres unmarked) [Compound 4ab, N-cycloheptyl-5-hydroxy-2-methyl-2(4-methylpent-3en-1-yl)-7-pentyl-2H-chromene-6-carboxamide], with 2.6 µM.
`CCCCCc1cc2c(c(O)c1C(=O)N1CCc3ccccc3C1)C=CC(C)(CCC=C(C)C)O2` (centres unmarked) [Compound 4ac, (3,4-dihydroisoquinolin-2(1H)-yl)(5-hydroxy-2-methyl-2-(4-methylpent-3-en-1-yl)-7-pentyl-2H-chromen-6-yl)methanone]: the IC50 in assay [1] amounted to 2.1 µM; in assay [2], 137 µM.
Regarding `CCCCCc1cc2c(c(O)c1C(=O)Nc1ccc(Br)cc1)C=CC(C)(CCC=C(C)C)O2` (centres unmarked) [Compound 4ad, N-(4-bromophenyl)-5-hydroxy-2-methyl-2-(4-methylpent-3-en-1-yl)-7-pentyl-2H-chromene-6-carboxamide], the IC50 is < 0.5 µM in assay [1] and 12 µM in assay [2].
For `CCCCCc1cc2c(c(O)c1C(=O)NC1CCOCC1)C=CC(C)(CCC=C(C)C)O2` (centres unmarked) [Compound 4af, 5-hydroxy-2-methyl-2-(4-methylpent-3-en-1-yl)-7-pentyl-N-(tetrahydro-2H-pyran-4-yl)-2H-chromene-6-carboxamide] the same measures were 46.1 µM and 194 µM.
In the same order, the values of `CCCCCc1cc2c(c(O)c1C(=O)N(C)C1CCCC1)C=CC(C)(CCC=C(C)C)O2` (centres unmarked) [Compound 4ag, N-cyclopentyl-5-hydroxy-N,2-dimethyl-2-(4-methylpent-3-en-1-yl)-7-pentyl-2H-chromene-6-carboxamide] are 47.7 µM and 14.4 µM.
In turn, `CCCCCc1cc2c(c(O)c1C(=O)NC1CC1)C=CC(C)(CCC=C(C)C)O2` (centres unmarked) [Compound 4c, N-cyclopropyl-5-hydroxy-2-methyl-2-(4-methylpent-3-en-1-yl)-7-pentyl-2H-chromene-6-carboxamide] gave an IC50 in assay [1] of 4.3 µM. In other words, the single-digit micromolar range.
Same read-out and setting: to `CCCCCc1cc2c(c(O)c1C(=O)NCCCC)C=CC(C)(CCC=C(C)C)O2` (centres unmarked) [Compound 4d, N-butyl-5-hydroxy-2-methyl-2-(4-methylpent-3-en-1-yl)-7-pentyl-2H-chromene-6-carboxamide] belongs 1 µM.
On the same count and under the same terms, then `CCCCCc1cc2c(c(O)c1C(=O)NC1CCCCC1)C=CC(C)(CCC=C(C)C)O2` (centres unmarked) [Compound 4f, N-cyclohexyl-5-hydroxy-2-methyl-2-(4-methylpent-3-en-1-yl)-7-pentyl-2H-chromene-6-carboxamide], with 1.2 µM.
For the compound `CCCCCCCCCNC(=O)c1c(CCCCC)cc2c(c1O)C=CC(C)(CCC=C(C)C)O2` (centres unmarked) [Compound 4g, 5-hydroxy-2-methyl-2-(4-methylpent-3-en-1-yl)-N-nonyl-7-pentyl-2H-chromene-6-carboxamide], the half-maximal inhibitory concentration (IC50) in assay [1] turned out to be 0.5 µM; in assay [2], 111 µM.
On to `CCCCCCCCCCCCNC(=O)c1c(CCCCC)cc2c(c1O)C=CC(C)(CCC=C(C)C)O2` (centres unmarked) [Compound 4h, N-dodecyl-5-hydroxy-2-methyl-2-(4-methylpent-3-en-1-yl)-7-pentyl-2H-chromene-6-carboxamide], for which the IC50 in assay [1] was 2.3 µM.
As for `C=CCCCCCCCCCNC(=O)c1c(CCCCC)cc2c(c1O)C=CC(C)(CCC=C(C)C)O2` (centres unmarked) [Compound 4i, 5-hydroxy-2-methyl-2-(4-methylpent-3-en-1-yl)-7-pentyl-N-(undec-10-en-1-1)-2H-chromene-6-carboxamide], the results for the IC50 in assay [1] and in assay [2] were 0.3 µM and 66.8 µM, respectively.
For `CCCCCc1cc2c(c(O)c1C(=O)NCC(CC)CCCC)C=CC(C)(CCC=C(C)C)O2` (centres unmarked) [Compound 4j, N-(2-ethylhexyl)-5-hydroxy-2-methyl-2-(4-methylpent-3-en-1-yl)-7-pentyl-2H-chromene-6-carboxamide] the same measures were 1.3 µM and 43.3 µM.
In the case of `CCCCCc1cc2c(c(O)c1C(=O)NC/C=C(\C)CCC=C(C)C)C=CC(C)(CCC=C(C)C)O2` (centres unmarked) [Compound 4k, (E)-N-(3,7-dimethylocta-2,6-dien-1-yl)-5-hydroxy-2-methyl-2-(4-methylpent-3-en-1-yl)-7-pentyl-2H-chromene-6-carboxamide], the IC50 in assay [1] is 1.3 µM; in assay [2], 59.3 µM.
Take `CCCCCc1cc2c(c(O)c1C(=O)N1CCS(=O)(=O)CC1)C=CC(C)(CCC=C(C)C)O2` (centres unmarked) [Compound 4l, (1,1-dioxidothiomorpholino)(5-hydroxy-2-methyl-2-(4-methylpent-3-en-1-yl)-7-pentyl-2H-chromen-6-yl)methanone]: the IC50 in assay [2] is 162 µM.
As to `C#CCNC(=O)c1c(CCCCC)cc2c(c1O)C=CC(C)(CCC=C(C)C)O2` (centres unmarked) [Compound 4m, 5-hydroxy-2-methyl-2-(4-methylpent-3-en-1-yl)-7-pentyl-N-(prop-2-yn-1-yl)-2H-chromene-6-carboxamide], the IC50 in assay [1] is 3.6 µM; in assay [2], 79.7 µM.
For `CCCCCc1cc2c(c(O)c1C(=O)NCCCc1ccccc1)C=CC(C)(CCC=C(C)C)O2` (centres unmarked) [Compound 4n, 5-hydroxy-2-methyl-2-(4-methylpent-3-en-1-yl)-7-pentyl-N--(3phenylpropyl)-2H-chromene-6-carboxamide] the same measures were 1.2 µM and 19 µM.
With `CCCCCc1cc2c(c(O)c1C(=O)NC1CCN(S(C)(=O)=O)CC1)C=CC(C)(CCC=C(C)C)O2` (centres unmarked) [Compound 4o, 5-hydroxy-2-methyl-2-(4-methylpent-3-en-1-yl)-N-(1-(methylsulfonyl)piperidin-4-yl)-7-pentyl-2H-chromene-6-carboxamide], the IC50 in assay [2] came to 8.43 µM.
In assay [1], `CCCCCc1cc2c(c(O)c1C(=O)NCc1cc(Br)cs1)C=CC(C)(CCC=C(C)C)O2` (centres unmarked) [Compound 4p, N-((4-bromothiophen-2-yl)methyl)-5-hydroxy-2-methyl-2-(4-methylpent-3-en-1-yl)-7-pentyl-2H-chromene-6-carboxamide] had an IC50 of 0.6 µM.
In the case of `CCCCCc1cc2c(c(O)c1C(=O)Nc1ncc(C)s1)C=CC(C)(CCC=C(C)C)O2` (centres unmarked) [Compound 4r, 5-hydroxy-2-methyl-2-(4-methylpent-3-en-1-yl)-N-(5-methylthiazol-2-yl)-7-pentyl-2H-chromene-6-carboxamide], the IC50 in assay [1] is 1.1 µM; in assay [2], 19.1 µM.
Turning to `CCCCCc1cc2c(c(O)c1C(=O)N[C@H]1CCCN(C(=O)OC(C)(C)C)C1)C=CC(C)(CCC=C(C)C)O2` (stereo partly drawn) [Compound 4s, tert-butyl(3S)-3-(5-hydroxy-2-methyl-2-(4-methylpent-3-en-1-yl)-7-pentyl-2H-chromene-6-carboxamido)piperidine-1-carboxylate], the IC50 in assay [1] was found to be 52.2 µM; in assay [2] it was 15.5 µM.
The compound `CCCCCc1cc2c(c(O)c1C(=O)Nc1ccc(C)cc1)C=CC(C)(CCC=C(C)C)O2` (centres unmarked) [Compound 4t, 5-hydroxy-2-methyl-2-(4-methylpent-3-en-1-yl)-7-pentyl-N-(p-tolyl)-2H-chromene-6-carboxamide] yielded an IC50 in assay [1] of 47.7 µM. This counts as double-digit micromolar.
The same measure, in the same setting: then `CCCCCc1cc2c(c(O)c1C(=O)NC(C)CC)C=CC(C)(CCC=C(C)C)O2` (centres unmarked) [Compound 4v, N-(sec-butyl)-5-hydroxy-2-methyl-2-(4-methylpent-3-en-1-yl)-7-pentyl-2H-chromene-6-carboxamide], with 6.6 µM.
For the compound `CCCCCc1cc2c(c(O)c1C(=O)Nc1ccc(-c3ccc(F)cc3)cc1)C=CC(C)(CCC=C(C)C)O2` (centres unmarked) [Compound 4w, N-(4′-fluoro-[1,1′-biphenyl]-4-yl)-5-hydroxy-2-methyl-2-(4-methylpent-3-en-1-yl)-7-pentyl-2H-chromene-6-carboxamide], the IC50 stood at 13.7 µM in assay [1] and 7.1 µM in assay [2].
`CCCCCc1cc2c(c(O)c1C(=O)NCCS)C=CC(C)(CCC=C(C)C)O2` (centres unmarked) [Compound 4y, 5-hydroxy-N-(2-mercaptoethyl)-2-methyl-2-(4-methylpent-3-en-1-yl)-7-pentyl-2H-chromene-6-carboxamide]: inhibition in assay [1] was half-maximal at 6.2 µM (IC50).
